Source: patent publication US20230092769A1 (SHANGHAI BENEMAE PHARMACEUTICAL CORPORATION, priority 2020, published 2023)
Where “and” joins values, the source holds several entries; their conditions need not be identical. Equal entries are not always repeated.

Columns and labels:
Format in all cases: in vivo
[1] = test system: STZ-induced diabetic C57BL/6 mice; test: Blood glucose after single dosing in STZ-induced diabetic C57BL/6 mice (Example 2); conditions: for blood glucose 15 min / blood glucose 30 min / blood glucose 60 min / blood glucose 120 min / blood glucose 180 min / blood glucose 240 min / AUC(0-120 min) of blood glucose / blood glucose 0 min: single s.c. dose; for blood glucose 0 min: pre-dose
Procedure: Animals: Male C57BL/6 mice (n=70) were purchased from Shanghai Jihui Laboratory Animal Care Co., Ltd. Upon arrival, the mice were housed in an animal facility at Shanghai University of Medicine & Health Sciences, under constant temperature (20-24° C.) and humidity (40-70%). Housing was provided at 12:12-hour light-dark cycle.
Active agents: Insulin glargine was obtained from Sanofi and stored at a temperature of 2-8° C. Beinaglutide having the sequence of […](SEQ ID NO: 1) was obtained from Benemae (beinaglutide injection, 2 mg/mL) and stored at 2-8° C.
(§1) After one-week acclimation, the mice were fed with high fat diet with 60 kcal % fat (D12492, Research Diets) for 3 weeks before STZ injection. Diabetic model was induced with 5 consecutive days of multiple low-dose STZ injection (50 mg/kg, intraperitoneally; i.p.). During modeling period, the mice were fasted for 4 hours before STZ treatment each day. The STZ solution (5 mg/ml) was freshly prepared in 0.1 M sodium citrate buffer (pH 4.5) before use and injected within 10 minutes of preparation. Seven days later, the mice with non-fasted blood glucose between 16.7 mM and 27.7 mM were selected and randomized into different groups by blood glucose level and body weight. At 9 am (T=0 minute) of Day 1, the mice were subcutaneously administrated with vehicle, insulin glargine, beinaglutide, or a mixture of insulin glargine and beinaglutide, which were mixed immediately before injection (Table 3). After first injection, tail blood glucose levels were measured at various intervals after injection, at 15 minutes, 30 minutes, 60 minutes, 120 minutes, 180 minutes, and 240 minutes, respectively. Subsequently, the mice of four groups (No. 1, No. 2, No. 4, and No. 6) continued to receive multiple dosing for 4 weeks. Body weight was measured twice per week. On day 28, after blood glucose measurement, the mice were fasted for 6 hours from 9 am, followed by an oral glucose tolerance test (glucose solution: 1 g/kg, 10 ml/kg). The blood glucose was monitored at 0 minute (pre-glucose loading), 15 minutes, 30 minutes, 60 minutes and 120 minutes after glucose loading.

[2] = Body weight change during 4-week multiple dosing in STZ-induced diabetic C57BL/6 mice; conditions: for body weight change Day 0 / body weight change Day 4 / body weight change Day 7 / body weight change Day 8 / body weight change Day 10 / body weight change Day 12 / body weight change Day 14 / body weight change Day 16 / body weight change Day 18 / body weight change Day 20 / body weight change Day 22 / body weight change Day 24 / body weight change Day 26 / body weight change Day 28: IGlar 5 U/kg s.c., 1st week bid, 2nd to 4th week tid; for body weight change Day 0: baseline
Procedure: as §1

[3] = test system: STZ-induced diabetic C57BL/6 mice; test: Oral glucose tolerance test (OGTT) on Day 28, STZ-induced diabetic C57BL/6 mice; set-up: OGTT blood glucose AUC: unit: mM·min
Procedure: The mice fasted for about 6 hours were orally administrated with glucose solution (1 g/kg). Blood glucose was measured at indicated time points.
as §1

[4] = test system: STZ-induced diabetic C57BL/6 mice; test: Fasting blood glucose on Day 28 after 6 hours fasting, STZ-induced diabetic C57BL/6 mice; conditions: Day 28, 6 hours fasting, IGlar 5 U/kg multiple dosing
Procedure: as §1, with “Subsequently, the mice of four groups (No. 1, No. 2, No. 4, and No. 6) continued to receive multiple dosing for 4 weeks.” left out, “On day 28, after blood glucose measurement, the mice were fasted for 6 hours from 9 am, followed by an oral glucose tolerance test (glucose solution: 1 g/kg, 10 ml/kg).” left out
On Day 28, the fasting blood glucose was measured after 6 hours fasting.

[5] = Insulin glargine 5 U/kg, group MEAN, n=6
[6] = Insulin glargine 5 U/kg, group MEAN, n=6, listed as IGlar
[7] = Insulin glargine 5 U/kg, individual animal
[8] = Insulin glargine 10 U/kg, group MEAN, n=6
[9] = Insulin glargine 10 U/kg, group MEAN, n=6, listed as IGlar
[10] = Insulin glargine 10 U/kg, individual animal

## insulin glargine
[1]; [5]
  blood glucose 15 min: 25.35 mM
  blood glucose 30 min: 16.95 mM
  blood glucose 60 min: 6.07 mM
  blood glucose 120 min: 7.02 mM
  blood glucose 180 min: 11.80 mM
  blood glucose 240 min: 18.83 mM
  blood glucose 0 min: 27.55 mM
[1]; Insulin glargine 5 U/kg, group MEAN, n=6, in mM·min (unit assumed)
  AUC(0-120 min) of blood glucose: 2864
[1]; [6]
  AUC(0-120 min) of blood glucose: significant reduction of blood glucose
  blood glucose 60 min: 6.07 ± 0.43 mM
[1]; [7]
  blood glucose 15 min: 23.4 mM and 25.7 mM and 26.6 mM and 24.1 mM and 26.3 mM and 26 mM
  blood glucose 30 min: 19.7 mM and 8.7 mM and 17.9 mM and 16.6 mM and 21.2 mM and 17.6 mM
  blood glucose 60 min: 6.4 mM and 6.2 mM and 5.9 mM (2×) and 5.4 mM and 6.6 mM
  blood glucose 120 min: 5.6 mM and 7.5 mM and 12.2 mM and 4.4 mM and 7.8 mM and 4.6 mM
  blood glucose 180 min: 10.8 mM and 14.1 mM and 17.2 mM and 8.9 mM and 11.5 mM and 8.3 mM
  blood glucose 240 min: 18.8 mM and 23.2 mM and 23.5 mM and 16.7 mM and 17.7 mM and 13.1 mM
  blood glucose 0 min: 31.1 mM and 29.3 mM and 25.9 mM and 28.3 mM and 25.3 mM and 25.4 mM
[1]; Insulin glargine 5 U/kg, individual animal, in mM·min (unit assumed)
  AUC(0-120 min) of blood glucose: 2864 and 3072 and 3731 and 2489 and 3047 and 2409
[1]; [8]
  blood glucose 15 min: 26.68 mM
  blood glucose 30 min: 14.68 mM
  blood glucose 60 min: 7.65 mM
  blood glucose 120 min: 5.50 mM
  blood glucose 180 min: 9.95 mM
  blood glucose 240 min: 20.18 mM
  blood glucose 0 min: 27.77 mM
[1]; Insulin glargine 10 U/kg, group MEAN, n=6, in mM·min (unit assumed)
  AUC(0-120 min) of blood glucose: 3986
[1]; [9]
  AUC(0-120 min) of blood glucose: significant reduction of blood glucose
  blood glucose 120 min: 5.50 ± 2.74 mM
  blood glucose 180 min: 9.95 ± 5.22 mM
[1]; [10]
  blood glucose 15 min: 24.4 mM (2×) and 23.6 mM and 30.3 mM and 29 mM and 28.4 mM
  blood glucose 30 min: 17.3 mM and 10.6 mM and 3.1 mM and 11.1 mM and 26.1 mM and 19.9 mM
  blood glucose 60 min: 9.6 mM and 5 mM and 7 mM and 5.2 mM and 13.3 mM and 5.8 mM
  blood glucose 120 min: 10.8 mM and 4.2 mM and 5.4 mM and 3 mM and 5.3 mM and 4.3 mM
  blood glucose 180 min: 19.3 mM and 9.4 mM and 6.1 mM and 5.8 mM and 6.7 mM and 12.4 mM
  blood glucose 240 min: 26.4 mM and 16.1 mM and 15.4 mM and 14.3 mM and 19.3 mM and 29.6 mM
  blood glucose 0 min: 26.7 mM and 25.5 mM and 29 mM and 24.6 mM and 30.2 mM and 30.6 mM
[1]; Insulin glargine 10 U/kg, individual animal, in mM·min (unit assumed)
  AUC(0-120 min) of blood glucose: 3986 and 2308 and 2209 and 1991 and 3146 and 3254
[1]; STZ-induced hyperglycemic mice, single s.c. administration
  blood glucose after a single administration (in words): significantly reduced blood glucose
[2]; group MEAN
  body weight change Day 0: 0.0 g
  body weight change Day 4: 0.0 g
  body weight change Day 7: 0.7 g
  body weight change Day 8: 0.7 g
  body weight change Day 10: 0.8 g
  body weight change Day 12: 0.7 g
  body weight change Day 14: 1.2 g
  body weight change Day 16: 1.3 g
  body weight change Day 18: 1.6 g
  body weight change Day 20: 1.7 g
  body weight change Day 22: 1.7 g
  body weight change Day 24: 1.8 g
  body weight change Day 26: 2.4 g
  body weight change Day 28: 2.4 ± 0.4 g and 2.4 g
[2]; individual animal
  body weight change Day 0: 0.0 g
  body weight change Day 4: -0.2 g and 0.0 g and 0.6 g and -0.1 g and 0.3 g and -0.4 g
  body weight change Day 7: 0.2 g and 0.7 g and 1.0 g (2×) and 0.8 g and 0.5 g
  body weight change Day 8: 0.0 g and 1.1 g and 0.6 g and 0.7 g and 1.3 g and 0.4 g
  body weight change Day 10: 0.1 g and 1.0 g (2×) and 0.7 g and 1.1 g and 0.8 g
  body weight change Day 12: 0.2 g and 0.9 g and 0.4 g and 0.8 g and 1.3 g and 0.6 g
  body weight change Day 14: 0.3 g and 1.3 g and 0.8 g (2×) and 2.0 g and 1.9 g
  body weight change Day 16: 0.7 g and 1.3 g and 1.7 g (2×) and 1.0 g
  body weight change Day 18: 0.9 g and 1.2 g and 2.4 g (2×) and 1.3 g
  body weight change Day 20: 1.0 g (2×) and 1.9 g and 2.3 g and 2.5 g
  body weight change Day 22: 1.2 g and 1.7 g and 2.1 g and 2.6 g and 1.0 g
  body weight change Day 24: 1.3 g and 1.9 g and 2.3 g and 2.7 g and 0.6 g
  body weight change Day 26: 1.5 g and 2.2 g and 3.3 g and 3.7 g and 1.2 g
  body weight change Day 28: 1.7 g and 2.3 g and 2.9 g and 3.8 g and 1.4 g
[2]; IGlar 5 U/kg vs IGlar 5 U/kg & Bei 0.05 mg/kg, 4-week treatment
  weight gain on Day 28, IGlar alone vs combo (in words): induced weight gain significantly higher than the combinational therapy of beinaglutide and insulin glargine
[3]; Day 28, glucose 1 g/kg oral, Bei 0.1 mg/kg, IGlar 5 U/kg, or IGlar 5 U/kg & Bei 0.05 mg/kg multiple dosing
  blood glucose based on the AUC during OGTT (in words): significantly reduced blood glucose based on the AUC
[3]; IGlar 5 U/kg, Day 28, group mean, 0 min
  OGTT blood glucose 0 min, MEAN: 13.98 mM
[3]; IGlar 5 U/kg, Day 28, group mean, 0-120 min
  OGTT blood glucose AUC, MEAN: 2390.25
[3]; IGlar 5 U/kg, Day 28, group mean, 15 min
  OGTT blood glucose 15 min, MEAN: 27.90 mM
[3]; IGlar 5 U/kg, Day 28, group mean, 30 min
  OGTT blood glucose 30 min, MEAN: 24.60 mM
[3]; IGlar 5 U/kg, Day 28, group mean, 60 min
  OGTT blood glucose 60 min, MEAN: 20.04 mM
[3]; IGlar 5 U/kg, Day 28, group mean, 120 min
  OGTT blood glucose 120 min, MEAN: 13.72 mM
[3]; IGlar 5 U/kg, Day 28, individual animals, 0 min
  OGTT blood glucose 0 min: 16.1 mM and 9.4 mM and 7.6 mM and 15.9 mM and 20.9 mM
[3]; IGlar 5 U/kg, Day 28, individual animals, 0-120 min
  OGTT blood glucose AUC: 2820.0 and 2205.0 and 2178.8 and 2133.0 and 2614.5
[3]; IGlar 5 U/kg, Day 28, individual animals, 15 min
  OGTT blood glucose 15 min: 33.3 mM and 25.4 mM and 24 mM and 25.9 mM and 30.9 mM
[3]; IGlar 5 U/kg, Day 28, individual animals, 30 min
  OGTT blood glucose 30 min: 27.9 mM and 23.4 mM and 23.1 mM and 23.3 mM and 25.3 mM
[3]; IGlar 5 U/kg, Day 28, individual animals, 60 min
  OGTT blood glucose 60 min: 23 mM and 18.6 mM and 19 mM and 16.4 mM and 23.2 mM
[3]; IGlar 5 U/kg, Day 28, individual animals, 120 min
  OGTT blood glucose 120 min: 17.9 mM and 13 mM and 12.9 mM and 12.1 mM and 12.7 mM
[4]; group mean
  fasting blood glucose, Mean: 14.0 ± 2.43 mM and 14.0 mM
[4]; individual animal
  fasting blood glucose: 16.1 mM and 9.4 mM and 7.6 mM and 15.9 mM and 20.9 mM
